Laboratory results taken from the NIST ThermoML archive (doi:10.1021/je400250u).

Legend:
[1] = xn = mol fraction of the nth substance listed; conditions: 100 kPa, Liquid; for viscosity: Capillary tube (Ostwald / Ubbelohde) method; for mass density: Vibrating tube method
[2] = refractive index (Na D-line) (dimensionless); xn = mol fraction of the nth substance listed; conditions: 100 kPa, Liquid, Standard Abbe refractometry

C1CC[C@H]2CCCC[C@H]2C1 [cis-decahydronaphthalene] + CCCCCCCCC
Conditions	mass density, [1] [kg/m3]	refractive index, [2]	viscosity, [1] [mPa·s]
293.15 K, x1 = 0.1031	734.59	–	0.788
293.15 K, x1 = 0.2033	751.1	–	0.899
293.15 K, x1 = 0.2973	766.96	–	1.02
293.15 K, x1 = 0.3997	784.54	–	1.139
293.15 K, x1 = 0.4978	801.87	–	1.268
293.15 K, x1 = 0.6044	821.02	–	1.507
293.15 K, x1 = 0.6961	837.96	–	1.769
293.15 K, x1 = 0.8014	857.86	–	2.111
293.15 K, x1 = 0.8976	876.48	–	2.526
293.15 K, x1 = 1	896.85	–	3.355
298.15 K, x1 = 0.1031	730.75	1.4095	0.737
298.15 K, x1 = 0.2033	747.26	1.4168	0.826
298.15 K, x1 = 0.2973	763.14	1.4232	0.956
298.15 K, x1 = 0.3997	780.74	1.4311	1.064
298.15 K, x1 = 0.4978	798.1	1.438	1.171
298.15 K, x1 = 0.6044	817.23	1.4459	1.385
298.15 K, x1 = 0.6961	834.18	1.4533	1.624
298.15 K, x1 = 0.8014	854.08	1.4613	1.919
298.15 K, x1 = 0.8976	872.72	1.4688	2.288
298.15 K, x1 = 1	893.06	1.4776	3.011
303.15 K, x1 = 0.1031	726.86	–	0.695
303.15 K, x1 = 0.2033	743.4	–	0.786
303.15 K, x1 = 0.2973	759.3	–	0.883
303.15 K, x1 = 0.3997	776.91	–	0.986
303.15 K, x1 = 0.4978	794.29	–	1.086
303.15 K, x1 = 0.6044	813.43	–	1.276
303.15 K, x1 = 0.6961	830.38	–	1.49
303.15 K, x1 = 0.8014	850.29	–	1.748
303.15 K, x1 = 0.8976	868.92	–	2.081
303.15 K, x1 = 1	889.26	–	2.718
308.15 K, x1 = 0.1031	722.96	1.4047	0.655
308.15 K, x1 = 0.2033	739.52	1.4121	0.739
308.15 K, x1 = 0.2973	755.44	1.4189	0.826
308.15 K, x1 = 0.3997	773.07	1.4269	0.917
308.15 K, x1 = 0.4978	790.46	1.4336	1.01
308.15 K, x1 = 0.6044	809.61	1.4425	1.182
308.15 K, x1 = 0.6961	826.58	1.4492	1.372
308.15 K, x1 = 0.8014	846.49	1.4572	1.606
308.15 K, x1 = 0.8976	865.13	1.4654	1.891
308.15 K, x1 = 1	885.46	1.4736	2.47
313.15 K, x1 = 0.1031	719.05	–	0.617
313.15 K, x1 = 0.2033	735.63	–	0.698
313.15 K, x1 = 0.2973	751.56	–	0.77
313.15 K, x1 = 0.3997	769.21	–	0.852
313.15 K, x1 = 0.4978	786.62	–	0.943
313.15 K, x1 = 0.6044	805.79	–	1.099
313.15 K, x1 = 0.6961	822.76	–	1.26
313.15 K, x1 = 0.8014	842.68	–	1.476
313.15 K, x1 = 0.8976	861.33	–	1.732
313.15 K, x1 = 1	881.65	–	2.252
318.15 K, x1 = 0.1031	715.12	1.4002	0.588
318.15 K, x1 = 0.2033	731.73	1.4077	0.662
318.15 K, x1 = 0.2973	747.68	1.4145	0.728
318.15 K, x1 = 0.3997	765.35	1.4223	0.802
318.15 K, x1 = 0.4978	782.77	1.4294	0.89
318.15 K, x1 = 0.6044	801.95	1.4379	1.033
318.15 K, x1 = 0.6961	818.94	1.4452	1.174
318.15 K, x1 = 0.8014	838.88	1.4533	1.374
318.15 K, x1 = 0.8976	857.52	1.4616	1.604
318.15 K, x1 = 1	877.85	1.4696	2.079
323.15 K, x1 = 0.1031	711.17	–	0.559
323.15 K, x1 = 0.2033	727.8	–	0.626
323.15 K, x1 = 0.2973	743.78	–	0.681
323.15 K, x1 = 0.3997	761.47	–	0.753
323.15 K, x1 = 0.4978	778.9	–	0.835
323.15 K, x1 = 0.6044	798.11	–	0.965
323.15 K, x1 = 0.6961	815.11	–	1.094
323.15 K, x1 = 0.8014	835.06	–	1.262
323.15 K, x1 = 0.8976	853.71	–	1.477
323.15 K, x1 = 1	874.05	–	1.912
